Laboratory results reported in US10006166B2, “Integrating the production of carboxylated cellulose nanofibrils and cellulose nanocrystals using recyclable organic acids” (The United States of America as Represented by the …, priority 2016, dated 2018).

Procedure: UV absorption spectrophotometric methods were employed for rapidly determining the soluble acid concentration in the solution. The UV-absorption spectra for oxalic, maleic, and toluenesulfonic acids are shown in FIGS. 3, 4, and 5, respectively.
The solubilities of oxalic, maleic, and toluenesulfonic acids at different temperatures were determined from UV absorption measurements in saturated solutions at different temperatures. The measured solubility data were fit to an exponential function as shown by Eq. (1). The maximum acid concentration that can be used at a given temperature can be determined from the exponential expression.
[formula] Where s0 and B are fitting constants and listed in TABLE 1 for the three acids studied while T is in degree Kelvin.

## O=C(O)/C=C\C(=O)O [Maleic acid]
  Fitting constant B for predicting solubility using Eq. (1): 2,461
  Fitting constant s0 for predicting solubility using Eq. (1): 3.14 × 10^5
